Earlier results as cited in paper PMC11359394 (Pharmaceutics, 2024).

Legend:
[1] = tested on: CYP2C8 and CYP3A4 isoenzymes
[2] = set-up: method as in US FDA GRAS Notices; details: rats, dietary consumption; ref US FDA GRAS Notices

solubility increase by exploiting the polymorphs | fraction metabolized in the liver by CYP P450 [1] | SMILES | dietary dose with no adverse effects [2]
60 fold | Approximately 90% | CC(=O)O[C@H]1C(=O)[C@@]2(C)[C@H]([C@H](OC(=O)c3ccccc3)[C@]3(O)C[C@H](OC(=O)[C@H](O)[C@@H](NC(=O)c4ccccc4)c4ccccc4)C(C)=C1C3(C)C)[C@]1(OC(C)=O)CO[C@@H]1C[C@@H]2O [Paclitaxel] | –
– | – | C=C1C[C@@]23CC[C@H]4[C@@](C)(CCC[C@@]4(C)C(=O)O[C@@H]4O[C@H](CO)[C@@H](O)[C@H](O)[C@H]4O)[C@@H]2CC[C@]1(O[C@@H]1O[C@H](CO)[C@@H](O)[C@H](O)[C@H]1O)C3 [RUB, Rubusoside] | up to 2 g/kg
